Experiment in all cases: DTP human tumour cell line panel, 48 h
Test [1] deals with NCI-H226 lung.
The test system of test [2] is CAKI-1 renal.
For test [3], the system named is OVCAR-5 ovarian.
Test [4] deals with HOP-92 NSCLC.
For test [5], the system named is SF-268 CNS.
In test [6] the test system is MOLT-4 leukemia.
For test [7], the system named is MDA-MB-435.
Test [8] concerns UO-31 renal.
Test [9] has as its system NCI/ADR-RES ovarian.
In test [10] the test system is SR leukemia.

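How tested: cells in 96-well plates exposed to compound for 48 hours at five concentrations. TGI marks complete inhibition of growth.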

Regarding `C/C(=N\Nc1ccc([N+](=O)[O-])cc1[N+](=O)[O-])c1ccc2ccccc2n1`, the concentration for total growth inhibition (TGI) in test [1], in test [2], in [3], in test [4], in test [5] and in test [6] was more than 100 µM throughout. Also, the TGI in test [7], in [8], in [9] and in test [10] was more than 100 µM each time.

As to `OCCN(CCO)c1ccc2c(C(F)(F)F)cc(C(F)(F)F)nc2n1`, the total growth inhibition concentration (TGI) in [1], in [2], in test [3], in test [4], in test [5] and in [6] was more than 100 µM in each case. The concentration for total growth inhibition (TGI) in [7], in test [8], in [9] and in test [10] was more than 100 µM throughout.

`CC(=O)Oc1ccc2c(c1)c1c(=O)oc(N(C)C)nc1n2Cc1ccccc1`: the total growth inhibition concentration (TGI) in [1] is more than 100 µM; in test [2], more than 73.3 µM; in test [3] it was more than 100 µM; in test [4], more than 100 µM; in [5], more than 100 µM; in test [6] it was more than 100 µM. Also, the TGI in [7] was more than 100 µM; in test [8], more than 81.8 µM; in [9], more than 100 µM; in [10], more than 100 µM.

For `NNC(=O)c1c(Cl)c(Cl)c(Cl)c(Cl)c1-c1nc2ccccc2[nH]1`, the TGI in test [1] is 65.4 µM; in test [2] it was 38 µM; in [3], more than 100 µM; in test [4] it was 43.9 µM; in test [5], more than 100 µM; in [6], 26.3 µM. For the same molecule, the total growth inhibition concentration (TGI) in [7] turned out to be 6.38 µM; in test [8] it was 39.5 µM; in test [9] it was 59.8 µM; in [10], 15.6 µM.

For the molecule `c1ccc(N=C2SC(=NNc3ccccc3)SC2=Nc2ccccc2)cc1`, the TGI in test [1], in test [2], in test [3], in test [4], in test [5] and in test [6] was more than 100 µM in each case. The TGI in test [7], in [8], in test [9] and in [10] was more than 100 µM in each case.

`Cc1ccc2c(c1)NC(=O)CCSSCCC(=O)N2`: the TGI in [1], in [2], in test [3], in [4], in test [5] and in [6] was more than 100 µM throughout. Besides, the total growth inhibition concentration (TGI) in test [7], in [8], in [9] and in [10] was more than 100 µM each time.

For the molecule `CN1C(c2ccccc2)=CC(=O)C(O)=C(c2ccccc2)S1(=O)=O`, the TGI in test [1], in [2], in test [3], in [4], in test [5] and in test [6] was more than 100 µM in each case. The TGI in test [7], in test [8], in test [9] and in [10] was more than 100 µM each time.

`NC1C/C(=N\O)c2c(I)sc(I)c21` (configuration not stated): the TGI in test [1] was 34.1 µM; in [2], 28.6 µM; in test [3], 31.4 µM; in [4], 34.5 µM; in test [5], 35.3 µM; in test [6], more than 100 µM. Besides, the TGI in test [7] was 27.2 µM; in [8] it was 30.1 µM; in [9] it was 43.1 µM; in test [10] it was more than 100 µM.

Take `NC1CC(=O)c2csc(Br)c21` (configuration not stated): the TGI in test [1] stood at 69.2 µM; in test [2], 27.5 µM; in test [3], 29.3 µM; in [4] it was 24.5 µM; in test [5], 44.1 µM; in test [6], 46.8 µM. Besides, the TGI in test [7] stood at 32.9 µM; in test [8], 30.7 µM; in test [9], 44.4 µM; in test [10] it was 47.5 µM.

Consider `CC(=O)Nc1ncc(Sc2ccccc2C(=O)O)s1`, for which the TGI in [1], in test [2], in test [3], in test [4], in test [5] and in test [6] was more than 100 µM each time. In addition, the TGI in [7], in test [8], in test [9] and in test [10] was more than 100 µM each time.

As to `O=C(Cn1nc(Br)c(Br)c1Br)c1ccccc1`, the concentration for total growth inhibition (TGI) was 63.5 µM in test [1]; 96.7 µM in test [2]; more than 100 µM in [3]; 66.8 µM in test [4]; more than 100 µM in test [5]; 12.3 µM in [6]. Besides, the TGI is more than 100 µM in [7], 57 µM in test [8], 93.1 µM in test [9] and 25.9 µM in [10].

On to `O=C(Oc1ccccc1)c1cc2cc(CCl)ccc2oc1=O`, for which the TGI in [1] was more than 100 µM; in test [2], 29.8 µM; in [3], more than 100 µM; in test [4] it was 28.7 µM; in test [5], 73.9 µM; in [6] it was more than 100 µM. Also, the TGI in [7] is more than 100 µM; in test [8] it was 68.1 µM; in test [9] it was more than 100 µM; in [10], more than 100 µM.

With `CCc1n[nH]c(=O)n1N1C(=O)C2CC=CCC2C1=O` (configuration not stated), the TGI in test [1], in [2], in test [3], in test [4], in test [5] and in [6] was more than 100 µM in each case. Further, the concentration for total growth inhibition (TGI) in [7], in test [8], in test [9] and in test [10] was more than 100 µM in each case.

Turning to `CC(=O)O[C@H]1C[C@]2(C)C(CCC3O[C@@]32C)[C@@]2(CC(c3ccoc3)OC2O)[C@@H]1C` (some centres not stated), the TGI in test [1] is more than 100 µM; in [2], more than 100 µM; in [3], more than 100 µM; in test [4], more than 100 µM; in test [5] it was more than 100 µM; in test [6] it was 93 µM. In addition, the total growth inhibition concentration (TGI) in test [7], in [8], in test [9] and in test [10] was more than 100 µM in each case.

As for `COc1cccc2cc(C(N)=O)c(=N)oc12`, the concentration for total growth inhibition (TGI) in [1], in [2], in test [3], in [4], in test [5] and in test [6] was more than 100 µM throughout. Also, the TGI in [7], in test [9] and in [10] was more than 100 µM in each case.

With `O=C(/C=C/c1ccc(O)c(O)c1)OCCc1cccc2ccccc12`, the TGI came to 58.6 µM in test [1]; 20.7 µM in test [2]; 31.7 µM in test [3]; 23.8 µM in [4]; 27 µM in test [5]; 12.3 µM in test [6]. The concentration for total growth inhibition (TGI) in [7] came to 4.65 µM; in test [8], 18.4 µM; in test [9], 29.4 µM; in [10], 5.64 µM.

Take `N#CCC(=O)Nn1c(CC#N)nnc1Cc1ccccc1`: the total growth inhibition concentration (TGI) in test [1], in [2], in test [3], in test [4], in [5] and in test [6] was more than 100 µM each time. Also, the TGI in test [7], in test [8], in test [9] and in test [10] was more than 100 µM in each case.

On to `CCCN1C(=O)CCC2=C1CCc1c2ccc(Cl)c1Cl`, for which the concentration for total growth inhibition (TGI) is more than 100 µM in test [1]; more than 100 µM in test [2]; 82 µM in [3]; 56.6 µM in test [4]; more than 100 µM in test [5]; more than 100 µM in [6]. Besides, the concentration for total growth inhibition (TGI) in [7], in [8], in test [9] and in [10] was more than 100 µM each time.

For the molecule `O=C(c1cc(Cl)cc(Cl)c1)N(C(=S)OC12CC3CC(CC(C3)C1)C2)c1ccccc1`, the concentration for total growth inhibition (TGI) in [1], in test [2], in test [3], in test [4], in test [5] and in test [7] was more than 100 µM each time. Moreover, the concentration for total growth inhibition (TGI) is 82.8 µM in test [8], more than 100 µM in test [9] and more than 100 µM in test [10].

For `O=C(CN1CCN(C(=O)OCc2ccccc2)CCN(CC(=O)N2CCCCC2)CCN(C(=O)OCc2ccccc2)CC1)N1CCCCC1`, the concentration for total growth inhibition (TGI) in test [1] is 36.6 µM; in test [2], 28.9 µM; in test [3] it was 48.8 µM; in test [4], 27.2 µM; in test [5], 31.8 µM; in test [6], more than 46 µM. Further, the TGI turned out to be 31.2 µM in test [7], 30.6 µM in [8], 32.5 µM in test [9] and 11.8 µM in test [10].

With `Cc1cc(N(CCC#N)CCC#N)ccc1/C(N=Nc1cccc([N+](=O)[O-])c1)=N/NC(=O)c1cc(Cl)ccc1O`, the TGI in [1] was more than 100 µM; in [2] it was 56.7 µM; in test [3] it was more than 100 µM; in test [4] it was 76.3 µM; in test [5], more than 100 µM; in test [6], 32.1 µM. The TGI is more than 100 µM in [7], 70.8 µM in test [8], more than 100 µM in test [9] and 45 µM in [10].

As for `CCP(=O)(CC)C(Cl)(Cl)C(O)C(C)(C)C` (configuration not stated), the total growth inhibition concentration (TGI) in test [1], in test [2], in [3], in test [4], in test [6] and in [7] was more than 100 µM throughout. Moreover, the TGI in test [8], in test [9] and in test [10] was more than 100 µM each time.

For the molecule `CC(=O)OCC1OC(n2c(N)c(C#N)c(-c3ccccc3)c(C#N)c2=S)C(OC(C)=O)C(OC(C)=O)C1OC(C)=O` (configuration not stated), the TGI is more than 100 µM in test [1]; more than 100 µM in [2]; more than 100 µM in test [3]; 50.9 µM in test [4]; more than 77.5 µM in [5]; more than 100 µM in [6]. Also, the total growth inhibition concentration (TGI) in test [7], in test [8], in test [9] and in test [10] was more than 100 µM in each case.

As to `COC(=O)C(CCC1C=CCC1)N=Cc1ccccc1` (configuration not stated), the TGI in test [1], in test [2], in test [3], in test [4], in test [5] and in test [6] was more than 100 µM in each case. The total growth inhibition concentration (TGI) in test [7], in [8], in test [9] and in test [10] was more than 100 µM each time.

Turning to `COP(C)(=O)/C(Cc1ccccc1)=N\O` (configuration not stated), the TGI in test [1], in test [2], in test [3], in test [4], in test [6] and in [7] was more than 100 µM each time. Further, the TGI in test [8], in test [9] and in test [10] was more than 100 µM each time.

Take `O=C1c2ccccc2CC12Cc1cc3c(cc1C2=O)CCC3` (configuration not stated): the TGI in test [2], in [3], in test [4], in test [5], in test [6] and in test [7] was more than 100 µM throughout. The TGI in test [8], in test [9] and in test [10] was more than 100 µM in each case.

In the case of `CCCNC(=S)N/N=C/c1cccc(C)n1`, the TGI is 72.2 µM in test [1]; more than 100 µM in [3]; more than 100 µM in test [4]; 72.3 µM in test [6]; more than 100 µM in [7]; more than 100 µM in test [8]. Further, the values for the concentration for total growth inhibition (TGI) in test [9] and in test [10] were more than 100 µM and 48.3 µM, respectively.

On to `C1COC(NC(C2CC2)C2CC2)=N1`, for which the total growth inhibition concentration (TGI) in [1], in [2], in [3], in [4], in test [6] and in test [7] was more than 100 µM throughout. In addition, the TGI in test [8], in [9] and in [10] was more than 100 µM in each case.

By TGI is commonly meant the concentration at which net growth stops. Read a low TGI as greater sensitivity of the cells.
